In ChEMBL document CHEMBL4257221, “Peptides comprising non-natural amino acids and methods of making and using the same” (2016):
Numbered stars: 1 amine (or outer) side, 2 acyl side, 3 side chain; on linkers, the order of the positions; unused ones are H or OH. Square brackets hold non-standard residues; d marks the D form. Peptide text beside a SMILES is read from it. ξ: configuration not given here. X1 = O=C([C@H]1CCC[C@@H]1N[*:1])[*:2]; X2 = O=C([C@H]1CNC[C@@H]1N[*:1])[*:2]; ξβ3hY = NC(CC(=O)O)Cc1ccc(O)cc1; β3hN = NC(=O)C[C@H](N)CC(=O)O; ξβ3hR = N=C(N)NCCCC(N)CC(=O)O; β3hV = CC(C)[C@H](N)CC(=O)O; ξβ3hQ = NC(=O)CCC(N)CC(=O)O; ξβ3hD = NC(CC(=O)O)CC(=O)O; ξβ3hL = CC(C)CC(N)CC(=O)O; ξβ3hK = NCCCCC(N)CC(=O)O; ξβ3hT = CC(O)C(N)CC(=O)O; ξβ3hV = CC(C)C(N)CC(=O)O; βAla = NCCC(=O)O

Legend:
[1] = molecular target: T1, Vasoactive intestinal polypeptide receptor 1 (Homo sapiens, UniProt P32241); experiment: Agonist activity at human VIPR1 expressed in CHOK1 cells assessed as intracellular cAMP accumulation after 60 mins by PathHunter assay; format: functional, cell-based
T1 sequence (P32241 whole entry): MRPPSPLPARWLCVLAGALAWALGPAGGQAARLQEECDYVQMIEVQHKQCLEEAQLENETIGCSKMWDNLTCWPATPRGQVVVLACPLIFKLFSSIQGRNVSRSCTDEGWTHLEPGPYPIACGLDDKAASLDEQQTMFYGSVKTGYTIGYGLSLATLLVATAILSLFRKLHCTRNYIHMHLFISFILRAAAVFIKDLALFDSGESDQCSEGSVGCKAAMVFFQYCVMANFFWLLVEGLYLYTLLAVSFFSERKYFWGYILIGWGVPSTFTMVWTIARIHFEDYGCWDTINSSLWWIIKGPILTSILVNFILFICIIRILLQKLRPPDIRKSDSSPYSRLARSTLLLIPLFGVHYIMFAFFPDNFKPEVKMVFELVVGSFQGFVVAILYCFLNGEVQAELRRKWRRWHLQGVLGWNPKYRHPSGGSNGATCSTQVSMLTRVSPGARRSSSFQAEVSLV

[2] = molecular target: T2, Vasoactive intestinal polypeptide receptor 2 (Homo sapiens, UniProt P41587); experiment: Agonist activity at human VIPR2 expressed in CHOK1 cells assessed as intracellular cAMP accumulation after 60 mins by PathHunter assay; format: functional, cell-based
T2 sequence (P41587 whole entry): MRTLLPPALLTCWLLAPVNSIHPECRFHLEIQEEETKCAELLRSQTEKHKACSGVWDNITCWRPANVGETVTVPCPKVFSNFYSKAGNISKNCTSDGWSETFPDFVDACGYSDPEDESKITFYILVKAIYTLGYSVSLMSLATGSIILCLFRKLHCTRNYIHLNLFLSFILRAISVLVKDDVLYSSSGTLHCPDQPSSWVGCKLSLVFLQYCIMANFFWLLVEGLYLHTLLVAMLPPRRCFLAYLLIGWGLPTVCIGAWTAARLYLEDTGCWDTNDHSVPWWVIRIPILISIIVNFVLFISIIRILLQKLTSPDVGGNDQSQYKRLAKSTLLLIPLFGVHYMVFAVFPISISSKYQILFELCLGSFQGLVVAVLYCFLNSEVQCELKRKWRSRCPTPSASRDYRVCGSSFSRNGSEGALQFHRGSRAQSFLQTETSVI

SMILES	EC50 [1] [nM]	EC50 [2] [nM]
CC(=O)N[C@@H](Cc1cnc[nH]1)C(=O)N[C@H]1CCC[C@@H]1C(=O)N[C@@H](CC(=O)O)C(=O)N[C@@H](C)C(=O)N[C@H]1CCC[C@@H]1C(=O)N[C@@H](Cc1ccccc1)C(=O)N[C@H](C(=O)N[C@@H](CCC(=O)O)C(=O)N[C@H]1CCC[C@@H]1C(=O)NC(CC(=O)N[C@H](C(=O)N[C@@H](CCCCN)C(=O)N[C@@H](CC(C)C)C(=O)N[C@@H](CCCNC(=N)N)C(=O)NC(CCCCN)CC(=O)N[C@@H](CCC(N)=O)C(=O)N[C@@H](CC(C)C)C(=O)N[C@@H](C)C(=O)N[C@@H](C)C(=O)N[C@H]1CNC[C@@H]1C(=O)N[C@@H](CCCCN)C(=O)N[C@@H](Cc1ccc(O)cc1)C(=O)N[C@H]1CCC[C@@H]1C(=O)N[C@@H](CC(N)=O)C(=O)N[C@@H](CC(=O)O)C(=O)N[C@@H](CC(C)C)C(=O)NC(CCCCN)CC(=O)N[C@@H](CCCCN)C(=O)NCC(=O)NCCC(=O)N[C@H](C(=O)O)[C@@H](C)O)[C@@H](C)O)Cc1ccc(O)cc1)[C@@H](C)O (stereo partly drawn) (Ac-H[X1]DA[X1]FTE[X1][ξβ3hY]TKLR[ξβ3hK]QLAA[X2]KY[X1]NDL[ξβ3hK]KG[βAla]T-OH)	461	> 1000
CC(=O)N[C@@H](Cc1cnc[nH]1)C(=O)N[C@H]1CCC[C@@H]1C(=O)N[C@@H](CC(=O)O)C(=O)N[C@@H](C)C(=O)N[C@H](CC(=O)N[C@@H](Cc1ccccc1)C(=O)N[C@H](C(=O)N[C@@H](CCC(=O)O)C(=O)N[C@@H](CC(N)=O)CC(=O)N[C@@H](Cc1ccc(O)cc1)C(=O)N[C@H](C(=O)N[C@@H](CCCCN)C(=O)N[C@@H](CC(C)C)C(=O)N[C@@H](CCCNC(=N)N)C(=O)N[C@@H](CCCCN)C(=O)N[C@@H](CCC(N)=O)C(=O)N[C@@H](CC(C)C)C(=O)N[C@@H](C)C(=O)N[C@@H](C)C(=O)N[C@H]1CNC[C@@H]1C(=O)N[C@@H](CCCCN)C(=O)N[C@@H](Cc1ccc(O)cc1)C(=O)N[C@H]1CCC[C@@H]1C(=O)N[C@@H](CC(N)=O)C(=O)N[C@@H](CC(=O)O)C(=O)N[C@@H](CC(C)C)C(=O)NC(CCCCN)CC(=O)N[C@@H](CCCCN)C(=O)NCC(=O)NCCC(=O)N[C@H](C(=O)O)[C@@H](C)O)[C@@H](C)O)[C@@H](C)O)C(C)C (stereo partly drawn) (Ac-H[X1]DA[β3hV]FTE[β3hN]YTKLRKQLAA[X2]KY[X1]NDL[ξβ3hK]KG[βAla]T-OH)	1420	0.859
CC(=O)N[C@@H](Cc1cnc[nH]1)C(=O)N[C@H]1CCC[C@@H]1C(=O)N[C@@H](CC(=O)O)C(=O)N[C@@H](C)C(=O)NC(CC(=O)N[C@@H](Cc1ccccc1)C(=O)N[C@H](C(=O)N[C@@H](CCC(=O)O)C(=O)N[C@@H](CC(N)=O)C(=O)N[C@@H](Cc1ccc(O)cc1)C(=O)N[C@H](C(=O)N[C@@H](CCCCN)C(=O)N[C@@H](CC(C)C)C(=O)NC(CCCNC(=N)N)CC(=O)N[C@@H](CCCCN)C(=O)N[C@@H](CCC(N)=O)C(=O)N[C@@H](CC(C)C)C(=O)N[C@@H](C)C(=O)N[C@@H](C)C(=O)N[C@H]1CNC[C@@H]1C(=O)N[C@@H](CCCCN)C(=O)N[C@@H](Cc1ccc(O)cc1)C(=O)N[C@H]1CCC[C@@H]1C(=O)N[C@@H](CC(N)=O)C(=O)N[C@@H](CC(=O)O)C(=O)N[C@@H](CC(C)C)C(=O)NC(CCCCN)CC(=O)N[C@@H](CCCCN)C(=O)NCC(=O)NCCC(=O)N[C@H](C(=O)O)[C@@H](C)O)[C@@H](C)O)[C@@H](C)O)C(C)C (stereo partly drawn) (Ac-H[X1]DA[ξβ3hV]FTENYTKL[ξβ3hR]KQLAA[X2]KY[X1]NDL[ξβ3hK]KG[βAla]T-OH)	> 1000	1.37
CC(=O)N[C@@H](Cc1cnc[nH]1)C(=O)N[C@H]1CCC[C@@H]1C(=O)N[C@@H](CC(=O)O)C(=O)N[C@@H](C)C(=O)NC(CC(=O)N[C@@H](Cc1ccccc1)C(=O)N[C@H](C(=O)N[C@@H](CCC(=O)O)C(=O)N[C@@H](CC(N)=O)C(=O)N[C@@H](Cc1ccc(O)cc1)C(=O)N[C@H](C(=O)N[C@@H](CCCCN)C(=O)NC(CC(=O)N[C@@H](CCCNC(=N)N)C(=O)N[C@@H](CCCCN)C(=O)N[C@@H](CCC(N)=O)C(=O)N[C@@H](CC(C)C)C(=O)N[C@@H](C)C(=O)N[C@@H](C)C(=O)N[C@H]1CNC[C@@H]1C(=O)N[C@@H](CCCCN)C(=O)N[C@@H](Cc1ccc(O)cc1)C(=O)N[C@H]1CCC[C@@H]1C(=O)N[C@@H](CC(N)=O)C(=O)N[C@@H](CC(=O)O)C(=O)N[C@@H](CC(C)C)C(=O)NC(CCCCN)CC(=O)N[C@@H](CCCCN)C(=O)NCC(=O)NCCC(=O)N[C@H](C(=O)O)[C@@H](C)O)CC(C)C)[C@@H](C)O)[C@@H](C)O)C(C)C (stereo partly drawn) (Ac-H[X1]DA[ξβ3hV]FTENYTK[ξβ3hL]RKQLAA[X2]KY[X1]NDL[ξβ3hK]KG[βAla]T-OH)	1420	1.33
CC(=O)N[C@@H](Cc1cnc[nH]1)C(=O)N[C@H]1CCC[C@@H]1C(=O)N[C@@H](CC(=O)O)C(=O)N[C@@H](C)C(=O)NC(CC(=O)N[C@@H](Cc1ccccc1)C(=O)N[C@H](C(=O)N[C@@H](CCC(=O)O)C(=O)N[C@@H](CC(N)=O)CC(=O)N[C@@H](Cc1ccc(O)cc1)C(=O)N[C@H](C(=O)N[C@@H](CCCCN)C(=O)N[C@@H](CC(C)C)C(=O)N[C@@H](CCCNC(=N)N)C(=O)N[C@@H](CCCCN)C(=O)N[C@@H](CCC(N)=O)C(=O)NC(CC(=O)N[C@@H](C)C(=O)N[C@@H](C)C(=O)N[C@H]1CNC[C@@H]1C(=O)N[C@@H](CCCCN)C(=O)N[C@@H](Cc1ccc(O)cc1)C(=O)N[C@H]1CCC[C@@H]1C(=O)N[C@@H](CC(N)=O)C(=O)N[C@@H](CC(=O)O)C(=O)N[C@@H](CC(C)C)C(=O)NC(CCCCN)CC(=O)N[C@@H](CCCCN)C(=O)NCC(=O)NCCC(=O)N[C@H](C(=O)O)[C@@H](C)O)CC(C)C)[C@@H](C)O)[C@@H](C)O)C(C)C (stereo partly drawn) (Ac-H[X1]DA[ξβ3hV]FTE[β3hN]YTKLRKQ[ξβ3hL]AA[X2]KY[X1]NDL[ξβ3hK]KG[βAla]T-OH)	> 1000	1.26
CC(=O)N[C@@H](Cc1cnc[nH]1)C(=O)N[C@H]1CCC[C@@H]1C(=O)N[C@@H](CC(=O)O)C(=O)N[C@@H](C)C(=O)NC(CC(=O)N[C@@H](Cc1ccccc1)C(=O)N[C@H](C(=O)N[C@@H](CCC(=O)O)C(=O)N[C@@H](CC(N)=O)CC(=O)N[C@@H](Cc1ccc(O)cc1)C(=O)N[C@H](C(=O)N[C@@H](CCCCN)C(=O)N[C@@H](CC(C)C)C(=O)N[C@@H](CCCNC(=N)N)C(=O)N[C@@H](CCCCN)C(=O)NC(CCC(N)=O)CC(=O)N[C@@H](CC(C)C)C(=O)N[C@@H](C)C(=O)N[C@@H](C)C(=O)N[C@H]1CNC[C@@H]1C(=O)N[C@@H](CCCCN)C(=O)N[C@@H](Cc1ccc(O)cc1)C(=O)N[C@H]1CCC[C@@H]1C(=O)N[C@@H](CC(N)=O)C(=O)N[C@@H](CC(=O)O)C(=O)N[C@@H](CC(C)C)C(=O)NC(CCCCN)CC(=O)N[C@@H](CCCCN)C(=O)NCC(=O)NCCC(=O)N[C@H](C(=O)O)[C@@H](C)O)[C@@H](C)O)[C@@H](C)O)C(C)C (stereo partly drawn) (Ac-H[X1]DA[ξβ3hV]FTE[β3hN]YTKLRK[ξβ3hQ]LAA[X2]KY[X1]NDL[ξβ3hK]KG[βAla]T-OH)	1530	3.52
CC(=O)N[C@@H](Cc1cnc[nH]1)C(=O)N[C@H]1CCC[C@@H]1C(=O)N[C@@H](CC(=O)O)C(=O)N[C@@H](C)C(=O)NC(CC(=O)N[C@@H](Cc1ccccc1)C(=O)N[C@H](C(=O)N[C@@H](CCC(=O)O)C(=O)N[C@@H](CC(N)=O)CC(=O)N[C@@H](Cc1ccc(O)cc1)C(=O)N[C@H](C(=O)N[C@@H](CCCCN)C(=O)N[C@@H](CC(C)C)C(=O)N[C@@H](CCCNC(=N)N)C(=O)NC(CCCCN)CC(=O)N[C@@H](CCC(N)=O)C(=O)N[C@@H](CC(C)C)C(=O)N[C@@H](C)C(=O)N[C@@H](C)C(=O)N[C@H]1CNC[C@@H]1C(=O)N[C@@H](CCCCN)C(=O)N[C@@H](Cc1ccc(O)cc1)C(=O)N[C@H]1CCC[C@@H]1C(=O)N[C@@H](CC(N)=O)C(=O)N[C@@H](CC(=O)O)C(=O)N[C@@H](CC(C)C)C(=O)NC(CCCCN)CC(=O)N[C@@H](CCCCN)C(=O)NCC(=O)NCCC(=O)N[C@H](C(=O)O)[C@@H](C)O)[C@@H](C)O)[C@@H](C)O)C(C)C (stereo partly drawn) (Ac-H[X1]DA[ξβ3hV]FTE[β3hN]YTKLR[ξβ3hK]QLAA[X2]KY[X1]NDL[ξβ3hK]KG[βAla]T-OH)	293	1.27
CC[C@H](C)[C@H](NC(=O)[C@H](C)NC(=O)[C@H](CC(N)=O)NC(=O)CC(CC(C)C)NC(=O)[C@H](Cc1ccc(O)cc1)NC(=O)[C@H](CCCCN)NC(=O)[C@H](CCCCN)NC(=O)CC(NC(=O)[C@H](C)NC(=O)[C@H](CC(C)C)NC(=O)[C@H](CCC(N)=O)NC(=O)CC(CCCCN)NC(=O)[C@H](CCCNC(=N)N)NC(=O)[C@H](CC(C)C)NC(=O)[C@H](CCCNC(=N)N)NC(=O)CC(NC(=O)[C@H](Cc1ccc(O)cc1)NC(=O)[C@H](CC(N)=O)NC(=O)[C@H](CC(=O)O)NC(=O)CC(NC(=O)[C@H](Cc1ccccc1)NC(=O)[C@@H](NC(=O)[C@H](C)NC(=O)CC(CC(=O)O)NC(=O)[C@H](CO)NC(=O)[C@@H](N)Cc1cnc[nH]1)C(C)C)C(C)O)C(C)O)C(C)C)C(=O)NC(CC(=O)N[C@@H](CC(N)=O)C(=O)O)CC(C)C (stereo partly drawn) (H-HS[ξβ3hD]AVF[ξβ3hT]DNY[ξβ3hT]RLR[ξβ3hK]QLA[ξβ3hV]KKY[ξβ3hL]NAI[ξβ3hL]N-OH)	> 1000	> 1000
